Experimental data taken from ChEMBL document CHEMBL4177690, “(E)-3-(3,4,5-Trimethoxyphenyl)-1-(pyridin-4-yl)prop-2-en-1-one, a heterocyclic chalcone is a potent and selective CYP1A1 inhibitor and cancer chemopreventive agent” (Bioorg Med Chem Lett, 2017).
pIC50: −log10 of the molar value.

What was measured:
Cytochrome P450 2C8 = target: T1, Cytochrome P450 2C8 (Homo sapiens, UniProt P10632); experiment: Inhibition of human CYP2C8 expressed in yeast cells; format: ADME, cell-based
T1 sequence (P10632 whole entry): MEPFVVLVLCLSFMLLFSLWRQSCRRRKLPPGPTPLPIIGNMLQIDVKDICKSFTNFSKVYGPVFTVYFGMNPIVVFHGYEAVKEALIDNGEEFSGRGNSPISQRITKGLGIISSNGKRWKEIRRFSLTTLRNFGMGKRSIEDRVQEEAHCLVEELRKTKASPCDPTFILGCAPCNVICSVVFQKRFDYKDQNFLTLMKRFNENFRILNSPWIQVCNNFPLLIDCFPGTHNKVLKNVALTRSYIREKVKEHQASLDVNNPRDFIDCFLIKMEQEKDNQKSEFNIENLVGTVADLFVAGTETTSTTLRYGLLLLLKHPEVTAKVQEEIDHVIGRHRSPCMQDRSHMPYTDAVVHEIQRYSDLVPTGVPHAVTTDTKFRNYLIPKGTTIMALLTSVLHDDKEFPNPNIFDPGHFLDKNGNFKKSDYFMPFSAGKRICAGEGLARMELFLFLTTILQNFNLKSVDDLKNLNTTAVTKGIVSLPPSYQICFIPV

Cytochrome P450 1A1 = target: T2, Cytochrome P450 1A1 (Homo sapiens, UniProt P04798); experiment: Inhibition of human CYP1A1 expressed in yeast microsomal membranes using 7-ethoxyresorufin as substrate measured after 10 mins by fluorescence assay; format: cell membranes
T2 sequence (P04798 whole entry): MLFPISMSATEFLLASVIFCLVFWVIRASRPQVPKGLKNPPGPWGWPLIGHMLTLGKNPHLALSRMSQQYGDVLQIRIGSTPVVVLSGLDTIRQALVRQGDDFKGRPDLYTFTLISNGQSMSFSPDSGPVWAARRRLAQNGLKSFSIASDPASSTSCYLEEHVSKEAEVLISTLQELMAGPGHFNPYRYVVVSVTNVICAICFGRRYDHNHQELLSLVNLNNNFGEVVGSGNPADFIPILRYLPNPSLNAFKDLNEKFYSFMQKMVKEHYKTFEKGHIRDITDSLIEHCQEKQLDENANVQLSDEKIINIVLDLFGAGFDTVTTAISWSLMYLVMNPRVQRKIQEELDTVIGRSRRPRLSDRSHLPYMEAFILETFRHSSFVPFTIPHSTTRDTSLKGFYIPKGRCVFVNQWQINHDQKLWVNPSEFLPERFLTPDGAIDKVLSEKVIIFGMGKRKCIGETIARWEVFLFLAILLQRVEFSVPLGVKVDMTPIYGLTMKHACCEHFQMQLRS

[1] = target: T3, Aryl hydrocarbon receptor (Homo sapiens, UniProt P35869); experiment: Antagonist activity at recombinant human eGFP-fused Ahr expressed in yeast cells co-expressing ARNT assessed as inhibition of benzo(a)pyrene-induced Ahr activation at 1 uM measured after 18 hrs by fluorescence assay; format: cell-based
T3 sequence (P35869 whole entry): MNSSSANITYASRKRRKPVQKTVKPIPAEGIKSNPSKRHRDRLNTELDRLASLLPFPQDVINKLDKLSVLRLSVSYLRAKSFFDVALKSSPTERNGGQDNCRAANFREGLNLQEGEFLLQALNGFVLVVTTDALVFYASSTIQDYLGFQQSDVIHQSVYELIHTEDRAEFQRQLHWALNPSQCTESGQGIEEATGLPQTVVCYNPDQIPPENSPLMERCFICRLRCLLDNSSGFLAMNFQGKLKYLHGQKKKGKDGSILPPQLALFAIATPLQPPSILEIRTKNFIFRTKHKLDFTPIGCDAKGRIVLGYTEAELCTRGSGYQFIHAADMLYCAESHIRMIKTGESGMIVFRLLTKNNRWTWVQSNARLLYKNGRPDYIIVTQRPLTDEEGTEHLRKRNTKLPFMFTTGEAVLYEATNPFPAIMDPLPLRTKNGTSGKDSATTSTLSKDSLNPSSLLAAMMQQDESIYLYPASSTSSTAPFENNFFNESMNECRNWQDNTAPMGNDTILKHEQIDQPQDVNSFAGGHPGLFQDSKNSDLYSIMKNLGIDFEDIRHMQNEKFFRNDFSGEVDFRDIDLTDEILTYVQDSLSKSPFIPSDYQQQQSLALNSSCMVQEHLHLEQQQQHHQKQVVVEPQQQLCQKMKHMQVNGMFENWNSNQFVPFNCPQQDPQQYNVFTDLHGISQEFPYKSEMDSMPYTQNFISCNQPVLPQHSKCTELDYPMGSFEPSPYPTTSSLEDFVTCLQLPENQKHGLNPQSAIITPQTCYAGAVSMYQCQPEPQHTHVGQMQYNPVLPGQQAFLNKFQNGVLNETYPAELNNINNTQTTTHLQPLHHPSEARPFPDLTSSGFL

Cytochrome P450 2C9 = Cytochrome P450 2C9 (Homo sapiens, UniProt P11712); experiment: Inhibition of recombinant human CYP2C9 expressed in HEK293 cells using 3-cyano-7-ethoxycoumarin as substrate pretreated for 30 mins followed by substrate addition measured for 60 mins by fluorescence assay; format: ADME
Cytochrome P450 2A6 = target: T4, Cytochrome P450 2A6 (Homo sapiens, UniProt P11509); experiment: Inhibition of human CYP2A6 expressed in yeast cells; format: ADME, cell-based
T4 sequence (P11509 whole entry): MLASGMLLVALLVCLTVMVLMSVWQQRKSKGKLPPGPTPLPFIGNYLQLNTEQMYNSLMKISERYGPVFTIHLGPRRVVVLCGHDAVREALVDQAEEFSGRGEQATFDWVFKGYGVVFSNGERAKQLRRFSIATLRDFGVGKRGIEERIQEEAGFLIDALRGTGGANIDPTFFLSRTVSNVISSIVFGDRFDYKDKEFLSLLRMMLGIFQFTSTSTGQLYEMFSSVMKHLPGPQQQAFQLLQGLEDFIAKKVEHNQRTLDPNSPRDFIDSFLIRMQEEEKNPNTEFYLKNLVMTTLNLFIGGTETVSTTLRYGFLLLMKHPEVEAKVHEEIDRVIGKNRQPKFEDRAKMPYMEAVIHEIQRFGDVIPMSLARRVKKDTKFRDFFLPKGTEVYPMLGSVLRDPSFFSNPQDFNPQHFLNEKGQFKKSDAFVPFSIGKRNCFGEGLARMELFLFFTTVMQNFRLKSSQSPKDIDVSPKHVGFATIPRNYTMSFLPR

Homo sapiens [2] = species: Homo sapiens; experiment: Selectivity ratio of IC50 for recombinant human CYP3A4 to IC50 for recombinant human CYP1A1
Homo sapiens [3] = species: Homo sapiens; experiment: Selectivity ratio of IC50 for recombinant human CYP2D6 to IC50 for recombinant human CYP1A1

Chain of Cytochrome P450 2C9 (P11712 whole entry): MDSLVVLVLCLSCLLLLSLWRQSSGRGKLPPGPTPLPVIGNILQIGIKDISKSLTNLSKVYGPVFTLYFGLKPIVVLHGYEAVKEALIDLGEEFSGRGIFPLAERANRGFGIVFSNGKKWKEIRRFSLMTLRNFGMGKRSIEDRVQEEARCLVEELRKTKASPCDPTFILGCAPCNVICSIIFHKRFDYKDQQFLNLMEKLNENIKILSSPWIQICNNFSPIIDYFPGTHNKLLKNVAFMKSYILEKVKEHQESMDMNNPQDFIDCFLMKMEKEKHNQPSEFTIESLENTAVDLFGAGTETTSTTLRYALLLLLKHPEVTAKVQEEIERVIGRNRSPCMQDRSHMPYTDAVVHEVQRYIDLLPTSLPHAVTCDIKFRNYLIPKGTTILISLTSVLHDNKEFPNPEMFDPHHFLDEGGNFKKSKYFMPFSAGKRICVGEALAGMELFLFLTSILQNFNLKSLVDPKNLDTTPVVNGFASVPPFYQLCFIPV

pIC50 (Cytochrome P450 2C8): 5.05
pIC50 (Cytochrome P450 1A1): 7.21
inhibition (INH) [1]: Active
pIC50 (Cytochrome P450 2C9): < 5.00
pIC50 (Cytochrome P450 2A6): < 5.00
Ratio IC50 (Homo sapiens [2]): > 100
Ratio IC50 (Homo sapiens [3]): > 100
SMILES: COc1cc(/C=C/C(=O)c2ccncc2)cc(OC)c1OC
